Measurements as given in US6713476B2, “Substituted cycloalkyls as inhibitors of a beta protein production” (Dupont Pharmaceuticals Company, priority 2000, dated 2004).

melting point: 82 to 86 °C
Compound: CN1C(=O)[C@@H](NC(=O)C2(CNC3CCCCC3)CCCC2)N=C(c2ccccc2)c2ccccc21
